The values that follow come from ChEMBL document CHEMBL1857833, “Screening and optimization of specific chemical series against human African Trypanosomiasis (HAT)”.

As usually defined, the IC50 is the concentration needed to halve the response being measured. Broadly, the solubility (kinetic) is solubility judged after dilution from a stock solution rather than from solid. In general, chromatographic logD refers to lipophilicity estimated from chromatographic retention. Lower therefore signals lower lipophilicity. As usually defined, the half-life is the time in which the quantity being followed falls by half. High values mean slow loss, low ones fast loss.

Data set [1] deals with Trypanosoma brucei. As to the kind of experiment: DNDI: Inhibition of Human African Trypanosomiasis, Cross 22, in vitro. It is filed as functional, organism-based.
Data set [2] has as its system Trypanosoma brucei. As to the kind of experiment: DNDI: Inhibition of Human African Trypanosomiasis, SBRI 427, in vitro. The data set is classed as functional, organism-based.
Data set [3] in a line: DNDI: Cytotoxicity against L929 mouse fibroblasts, CYTO-SP, 24 hour. It is filed as toxicity, cell-based. To be noted: mouse, L929 mouse fibroblasts.
Data set [4] in a line: DNDI: Cytotoxicity against L929 mouse fibroblasts, 72 hour. The data set is classed as toxicity, cell-based. Conditions: mouse, L929 mouse fibroblasts.
The conditions of data set [5]: mouse, microsomes, 1 µM.
Description: DNDI: in vitro intrinsic clearance in mouse liver microsomes at a concentration of 1uM
Data set [6] can be described thus: DNDI: Solubility in phosphate buffered saline at pH7.4 measured by nephelometry at room temperature (NEPH-RT). The data set is classed as physicochemical. To be noted: pH 7.4.
Data set [7] in a line: DNDI: Lipophilicity measured in Chromatographic hydrophobicity index (CHI) assay, pH 7.4. It is filed as physicochemical. Conditions: buffer.
Data set [8] can be described thus: in vitro. Conditions: mouse, liver microsomes, t (1 / 2).
Description: DNDI: half life in mouse liver microsomes at a concentration of 1uM
[9] abbreviates: Trypanosoma brucei, SBRI 427, read-out: IC50.

Values after ≈ are worked out from the molar mass of the structure shown. Values joined by “and” are separate entries in the source; they are usually repeats but may differ in a detail not shown here. Equal values may be shown once.

As to `Clc1ccc(-c2nc(CNC3CCCCCC3)co2)cc1`, the IC50 in data set [1] was 1.45 µg/mL (≈ 4.76 µM); in data set [2] it was 1.61 µg/mL and 1.55 µg/mL; in data set [2] (setting [9]) it was 1.27 µg/mL (≈ 4.17 µM). Moreover, in data set [3], the IC50 at 24 h was determined as 26.6 µg/mL (≈ 87.3 µM). For the same compound, in data set [4], the IC50 at 72 h came out at 3.43 µg/mL (≈ 11.3 µM).
Consider `CC1(C)[C@H]2CC[C@@H](CNCc3coc(-c4ccc(Cl)cc4)n3)[C@@H]1C2`, for which the IC50 in data set [1] was 1.04 µg/mL (≈ 3.02 µM); in data set [2], 0.9 µg/mL and 1.53 µg/mL; in data set [2] (setting [9]), 0.8 µg/mL (≈ 2.32 µM). In addition, the 50% inhibitory concentration (IC50) at 24 h in data set [3] was above 50 µg/mL. In data set [4], this compound gave an IC50 at 72 h of 3.52 µg/mL (≈ 10.2 µM).
Take `CC1CC(NCc2coc(-c3ccc(C(C)(C)C)cc3)n2)CC(C)(C)C1` (stereo unspecified): the IC50 in data set [1] and in data set [2] (setting [9]) was above 5 µg/mL each time. In data set [3], this compound registered an IC50 at 24 h above 50 µg/mL. The same compound came in with an IC50 at 72 h in data set [4] above 50 µg/mL.
Regarding `CCCCOc1ccc(-c2nc(CN[C@@H]3C[C@@H]4C[C@H]([C@H]3C)C4(C)C)co2)cc1`, the IC50 in data set [1] was 0.58 µg/mL (≈ 1.52 µM); in data set [2], 0.61 µg/mL and 0.72 µg/mL and 0.29 µg/mL. Also, the half-inhibitory concentration (IC50) at 24 h in data set [3] amounted to 8.05 µg/mL (≈ 21 µM). Moreover, in data set [4], the IC50 at 72 h was below 3.13 µg/mL.
Turning to `O/N=C(/c1ccccc1-c1ccccc1)N1CCCCC1`, the IC50 in data set [2] (setting [9]) is above 5 µg/mL. This compound registered a CLint in vitro in data set [5] of 157 µL/min/mg. In data set [6], the solubility (kinetic) came out at 50 µM (≈ 14 µg/mL). In data set [7], this compound displayed a chromatographic logD of 4.46. This compound also gave an IC50 at 24 h in data set [3] above 50 µg/mL. For the same compound, the half-life at 1 µM in data set [8] amounted to 5 min.
For the compound `CC1CC(NCc2coc(-c3ccc(Cl)cc3)n2)CC(C)(C)C1` (stereo unspecified), the IC50 is 0.85 µg/mL (≈ 2.55 µM) in data set [1]; 0.86 µg/mL and 1.52 µg/mL in data set [2]; 1.18 µg/mL (≈ 3.54 µM) in data set [2] (setting [9]). The same compound had an IC50 at 24 h in data set [3] above 50 µg/mL. This compound registered an IC50 at 72 h in data set [4] below 3.13 µg/mL.
Consider `CCCCc1ccc(-c2nc(CNCCN(C)C)co2)cc1`, for which the IC50 in data set [2] (setting [9]) was 0.79 µg/mL (≈ 2.62 µM). In data set [5], the CLint in vitro turned out to be 55 µL/min/mg. The compound also showed a kinetic solubility in data set [6] of 1 µM (≈ 0.301 µg/mL). The compound also yielded a chromatographic logD in data set [7] of 4.97. In data set [4], this compound showed an IC50 at 72 h of 4.87 µg/mL (≈ 16.2 µM). Moreover, in data set [8], the half-life at 1 µM amounted to 15 min.
On to `COc1ccc(/C(=N/O)Nc2ccc(F)cc2)cc1`, for which the IC50 in data set [2] (setting [9]) was 4.54 µg/mL (≈ 17.4 µM). This compound had a CLint in vitro in data set [5] of 118 µL/min/mg. The same compound came in with a kinetic solubility in data set [6] of 100 µM (≈ 26 µg/mL). Further, the chromatographic logD in data set [7] came to 3.02. In data set [4], this compound returned an IC50 at 72 h above 10 µg/mL. Moreover, the half-life at 1 µM in data set [8] stood at 7 min.
`CCC(C)C(NCc1ccccc1OC)c1nc(-c2ccccc2)c(N2CCCCC2)o1` (stereo unspecified): the IC50 in data set [2] (setting [9]) was 4.82 µg/mL (≈ 11.1 µM). Moreover, the CLint in vitro in data set [5] worked out at 227 µL/min/mg. This compound also displayed a kinetic solubility in data set [6] of 2 µM (≈ 0.867 µg/mL). In data set [7], this compound registered a chromatographic logD above 5.2. This compound also showed an IC50 at 72 h in data set [4] above 10 µg/mL. This compound also registered a half-life at 1 µM in data set [8] of 4 min.
As for `CC(C)(C)c1ccc(-c2nc(CNC3[C@H]4C[C@@H]5C[C@@H](C[C@H]3C5)C4)co2)cc1` (stereo partly specified), the IC50 in data set [1] was 0.83 µg/mL (≈ 2.28 µM); in data set [2], 0.87 µg/mL and 0.51 µg/mL and 1.1 µg/mL. Moreover, in data set [5], the CLint in vitro was determined as 14 µL/min/mg. Moreover, in data set [3], the IC50 at 24 h was above 50 µg/mL. For the same compound, the IC50 at 72 h in data set [4] worked out at 13 µg/mL (≈ 35.8 µM). The same compound registered a half-life at 1 µM in data set [8] of 59 min.
With `c1ccc(-c2ccc(-c3nc(CNC4[C@H]5C[C@@H]6C[C@@H](C[C@H]4C6)C5)co3)cc2)cc1` (stereo partly specified), the IC50 in data set [1] was 0.92 µg/mL (≈ 2.39 µM); in data set [2], 0.7 µg/mL and 0.85 µg/mL; in data set [2] (setting [9]) it was 1.18 µg/mL (≈ 3.07 µM). This compound registered an IC50 at 24 h in data set [3] above 50 µg/mL. The IC50 at 72 h in data set [4] was 9.8 µg/mL (≈ 25.5 µM).
For `CCCCc1ccc(-c2nc(CNCCN3CCCC3)co2)cc1`, in data set [2] (setting [9]), the IC50 was found to be 0.84 µg/mL (≈ 2.57 µM). The CLint in vitro in data set [5] was 33 µL/min/mg. Further, the solubility (kinetic) in data set [6] was below 1 µM. Besides, in data set [7], the chromatographic logD is 4.89. Further, in data set [4], the IC50 at 72 h stood at 3.87 µg/mL (≈ 11.8 µM). The compound also showed a half-life at 1 µM in data set [8] of 26 min.
For the compound `C[C@@H]1[C@H]2C[C@@H](C[C@H]1NCc1coc(-c3ccc(-c4ccccc4)cc3)n1)C2(C)C`, the 50% inhibitory concentration (IC50) in data set [1] amounted to 0.37 µg/mL (≈ 0.957 µM); in data set [2], 0.19 µg/mL (≈ 0.492 µM); in data set [2] (setting [9]), 0.24 µg/mL (≈ 0.621 µM). It took 8.15 µg/mL (≈ 21.1 µM) to reach half-maximal inhibition in data set [3] (IC50 at 24 h). For the same compound, in data set [4], the IC50 at 72 h is below 3.13 µg/mL.
Regarding `CCCCOc1ccc(-c2nc(CNC3[C@H]4C[C@@H]5C[C@@H](C[C@H]3C5)C4)co2)cc1` (stereo partly specified), the IC50 is 0.34 µg/mL (≈ 0.893 µM) in data set [1]; 0.37 µg/mL and 0.29 µg/mL in data set [2]; 0.36 µg/mL (≈ 0.946 µM) in data set [2] (setting [9]). The compound also displayed an IC50 at 24 h in data set [3] of 15.9 µg/mL (≈ 41.8 µM). The compound also came in with an IC50 at 72 h in data set [4] below 3.13 µg/mL.
Consider `O/N=C(/Nc1ccc(F)cc1)c1ccccc1-c1ccccc1`, for which, in data set [2] (setting [9]), the IC50 amounted to 3.46 µg/mL (≈ 11.3 µM). The same compound displayed a CLint in vitro in data set [5] of 59 µL/min/mg. In addition, the solubility (kinetic) in data set [6] came to 25 µM (≈ 7.66 µg/mL). The compound further had a chromatographic logD in data set [7] of 3.98. The compound further showed an IC50 at 24 h in data set [3] above 50 µg/mL. Also, the half-life at 1 µM in data set [8] amounted to 14 min.
As to `CCCCCC(C)NCc1coc(-c2ccc(OCC(=O)c3ccccc3)cc2)n1` (stereo unspecified), the IC50 in data set [2] (setting [9]) was determined as 0.59 µg/mL (≈ 1.45 µM). The same compound returned a CLint in vitro in data set [5] of 188 µL/min/mg. In addition, the kinetic solubility in data set [6] turned out to be 2 µM (≈ 0.813 µg/mL). The compound also had a chromatographic logD in data set [7] of 4.16. In data set [4], this compound displayed an IC50 at 72 h of 1.74 µg/mL (≈ 4.28 µM). The half-life at 1 µM in data set [8] was determined as 5 min.
